Experiments:
human 5HT1F receptor = target: T1, human 5HT1F receptor (Homo sapiens, UniProt P30939); assay: Radioligand binding at human 5HT1F receptor; settings: read-out: h5HT1F Ki
T1 construct: expressed in transfected cells
Protocol: Human 5HT1B, 5HT1D, 5HT1E, 5HT1F, and 5HT7 ReceDtors: The cell lysates of LM(tk-) clonal cell line stably transfected with the genes encoding each of these 5HT receptor-subtypes were prepared as described above. Cell membranes were suspended in 50 mM Tris-HCl buffer (pH 7.4 at 37° C.) containing 10 mM MgCl2, 0.2 mM EDTA, 10 µM pargyline, and 0.1% ascorbate. […] Nonspecific binding was determined in the presence of 10 μM serotonin. The bound radioligand was separated by filtration through GF/B filters using a cell harvester.
(§1) Binding data were analyzed using nonlinear regression and statistical techniques available in the GraphPAD Prism package (San Diego, Calif.). Enzymatic assay data were derived from a standard curve of reference compound data.

human 5HT4 receptor = target: T2, human 5HT4 receptor (Homo sapiens, UniProt Q13639); assay: Radioligand binding at 5-HT4 receptor; settings: read-out: h5HT4 Ki
T2 construct: expressed in transfected cells
T2 sequence (Q13639 whole entry): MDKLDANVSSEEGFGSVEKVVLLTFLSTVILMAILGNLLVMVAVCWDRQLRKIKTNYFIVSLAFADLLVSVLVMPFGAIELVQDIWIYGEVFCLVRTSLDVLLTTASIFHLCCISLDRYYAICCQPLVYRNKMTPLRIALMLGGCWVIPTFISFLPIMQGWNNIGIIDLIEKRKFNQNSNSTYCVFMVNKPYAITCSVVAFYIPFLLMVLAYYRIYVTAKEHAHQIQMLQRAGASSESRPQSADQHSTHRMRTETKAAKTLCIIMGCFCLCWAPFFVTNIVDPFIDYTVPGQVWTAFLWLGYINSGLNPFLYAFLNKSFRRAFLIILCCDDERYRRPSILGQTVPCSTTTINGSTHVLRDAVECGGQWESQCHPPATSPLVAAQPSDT
Protocol: (§2) Other 5-HT ReceDtors: Other serotonin receptor binding assays were performed according to published methods: rat 5HT2c receptor (Julius et al., 1988); and 5-HT6 (Monsma, et al., 1993). The binding assays using the 5-HT4 receptor were performed according to the procedures described in U.S. Pat. No. 5,766,879, the disclosure of which is hereby incorporated by reference in its entirety into this application.
as §1

[1] = target: T3, Monoamine Oxidase B (central) (Rattus norvegicus, UniProt P19643); assay: Central Monoamine Oxidase B Enzyme Assay; type: biochemical; settings: rat brain as enzyme source
T3 construct: Rat brain was used as the enzyme source; tissue NovaScreen (Hanover, Md.) performed the assay; host or cells: rat brain
T3 sequence (P19643 whole entry): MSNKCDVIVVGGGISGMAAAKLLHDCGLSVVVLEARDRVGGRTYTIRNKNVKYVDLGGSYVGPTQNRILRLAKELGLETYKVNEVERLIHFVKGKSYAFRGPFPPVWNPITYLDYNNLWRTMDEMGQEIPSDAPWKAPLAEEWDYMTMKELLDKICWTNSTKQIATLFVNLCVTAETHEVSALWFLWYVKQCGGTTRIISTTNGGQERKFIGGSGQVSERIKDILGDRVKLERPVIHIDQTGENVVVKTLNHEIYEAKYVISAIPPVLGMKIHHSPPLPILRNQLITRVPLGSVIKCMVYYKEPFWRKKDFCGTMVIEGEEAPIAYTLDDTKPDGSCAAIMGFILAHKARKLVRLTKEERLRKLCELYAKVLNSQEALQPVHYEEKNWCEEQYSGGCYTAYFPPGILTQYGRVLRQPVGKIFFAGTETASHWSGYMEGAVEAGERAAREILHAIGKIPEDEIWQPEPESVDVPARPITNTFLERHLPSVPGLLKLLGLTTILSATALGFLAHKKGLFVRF
Protocol: The methods to determine activity at monoamine oxidase enzymes (for example, central MAOA and MAOB) are described by Otsuka and Kobayashi, 1964, and were performed by NovaScreen (Hanover, Md.) with the following modifications.
Central Monoamine Oxidase B Enzyme Assay: Rat brain was used as the enzyme source. The assay was performed as described above for central MAOA, except the reference compound was RO 166491 and the subtype selective blocker was 100 nM clorgyline. Also, the substrate ([^14C]Phenylethylamine, 0.056 Ci/mmol) was added and incubated for 10 minutes.
as §1

[2] = target: T4, human α2A adrenergic receptor (Homo sapiens, UniProt P08913); assay: Binding at human α2A adrenergic receptor; settings: read-out: hα2A Ki
T4 construct: expressed in transfected cells
T4 sequence (P08913 whole entry): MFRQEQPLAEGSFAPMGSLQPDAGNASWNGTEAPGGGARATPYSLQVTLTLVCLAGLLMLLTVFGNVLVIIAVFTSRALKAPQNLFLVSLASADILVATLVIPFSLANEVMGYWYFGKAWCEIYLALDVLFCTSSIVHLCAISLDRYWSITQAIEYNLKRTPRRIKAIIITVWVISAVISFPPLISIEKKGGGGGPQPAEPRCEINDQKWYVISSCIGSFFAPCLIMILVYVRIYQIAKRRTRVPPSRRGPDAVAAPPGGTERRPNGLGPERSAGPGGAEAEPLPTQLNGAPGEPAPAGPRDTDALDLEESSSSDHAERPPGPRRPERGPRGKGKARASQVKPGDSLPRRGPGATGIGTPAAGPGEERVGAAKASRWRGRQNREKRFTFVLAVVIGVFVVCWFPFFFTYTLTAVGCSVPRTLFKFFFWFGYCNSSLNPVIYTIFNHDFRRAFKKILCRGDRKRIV
From the text: (§3) Other receptors: Cell membranes expressing human dopamine D1, D2, D4 and rat D3 receptors were purchased through BioSignal, Inc. (Montreal, Canada). Binding assays using the histamine H1 receptor; dopamine receptors; and α1A, α1B, and α2 adrenergic receptors may be carried out according to the procedures described in U.S. Pat. No. 5,780,485, the disclosure of which is hereby incorporated by reference in its entirety into this application. Binding assays using the dopamine D5 receptor may be carried out according to the procedures described in U.S. Pat. No. 5,882,855, the disclosure of which is hereby incorporated by reference in its entirety into this application. Binding assays for the human α1D adrenergic receptor may be carried out according to the procedures described in U.S. Pat. No. 6,156,518, the disclosure of which is hereby incorporated by reference in its entirety into this application.
as §1

human 5HT6 receptor = target: T5, human 5HT6 receptor (Homo sapiens, UniProt P50406); assay: Radioligand binding at 5-HT6 receptor; settings: read-out: h5HT6 Ki
T5 construct: expressed in transfected cells
T5 sequence (P50406 whole entry): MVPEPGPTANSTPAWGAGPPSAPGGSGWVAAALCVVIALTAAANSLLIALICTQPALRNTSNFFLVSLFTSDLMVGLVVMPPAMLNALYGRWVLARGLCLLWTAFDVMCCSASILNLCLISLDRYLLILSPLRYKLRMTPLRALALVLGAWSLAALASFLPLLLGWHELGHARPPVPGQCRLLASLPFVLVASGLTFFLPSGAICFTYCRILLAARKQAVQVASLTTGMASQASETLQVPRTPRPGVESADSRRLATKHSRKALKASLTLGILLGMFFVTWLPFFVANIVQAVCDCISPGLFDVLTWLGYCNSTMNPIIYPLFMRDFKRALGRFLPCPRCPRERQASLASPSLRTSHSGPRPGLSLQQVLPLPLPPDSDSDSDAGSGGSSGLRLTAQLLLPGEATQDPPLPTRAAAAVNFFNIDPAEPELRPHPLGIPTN
Protocol: as §2, §1

[3] = target: T6, human dopamine D2 receptor (Homo sapiens, UniProt P14416); assay: Binding at human dopamine D2 receptor; settings: read-out: hD2 Ki
T6 construct: purchased BioSignal, Inc. (Montreal, Canada)
T6 sequence (P14416 whole entry): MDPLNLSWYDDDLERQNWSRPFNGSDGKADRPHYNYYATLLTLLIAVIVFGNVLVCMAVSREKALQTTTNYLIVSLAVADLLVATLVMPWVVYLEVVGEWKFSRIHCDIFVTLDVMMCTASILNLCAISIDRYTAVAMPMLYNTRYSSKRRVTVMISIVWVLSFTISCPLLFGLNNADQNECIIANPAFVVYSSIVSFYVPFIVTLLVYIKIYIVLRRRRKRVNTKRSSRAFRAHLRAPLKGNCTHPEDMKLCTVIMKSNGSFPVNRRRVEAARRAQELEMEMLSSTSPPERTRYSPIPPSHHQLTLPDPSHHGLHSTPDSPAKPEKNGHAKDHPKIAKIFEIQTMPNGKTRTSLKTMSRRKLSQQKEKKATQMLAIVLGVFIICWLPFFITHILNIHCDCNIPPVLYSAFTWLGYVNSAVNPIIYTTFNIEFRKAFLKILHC
From the text: as §3, §1

5HT transporter = target: T7, 5HT transporter (Rattus norvegicus, UniProt P31652); assay: Binding at native 5HT transporter; settings: read-out: r5HT Uptk Ki
T7 construct: native, tissue-derived transporters; from tissue
T7 sequence (P31652 whole entry): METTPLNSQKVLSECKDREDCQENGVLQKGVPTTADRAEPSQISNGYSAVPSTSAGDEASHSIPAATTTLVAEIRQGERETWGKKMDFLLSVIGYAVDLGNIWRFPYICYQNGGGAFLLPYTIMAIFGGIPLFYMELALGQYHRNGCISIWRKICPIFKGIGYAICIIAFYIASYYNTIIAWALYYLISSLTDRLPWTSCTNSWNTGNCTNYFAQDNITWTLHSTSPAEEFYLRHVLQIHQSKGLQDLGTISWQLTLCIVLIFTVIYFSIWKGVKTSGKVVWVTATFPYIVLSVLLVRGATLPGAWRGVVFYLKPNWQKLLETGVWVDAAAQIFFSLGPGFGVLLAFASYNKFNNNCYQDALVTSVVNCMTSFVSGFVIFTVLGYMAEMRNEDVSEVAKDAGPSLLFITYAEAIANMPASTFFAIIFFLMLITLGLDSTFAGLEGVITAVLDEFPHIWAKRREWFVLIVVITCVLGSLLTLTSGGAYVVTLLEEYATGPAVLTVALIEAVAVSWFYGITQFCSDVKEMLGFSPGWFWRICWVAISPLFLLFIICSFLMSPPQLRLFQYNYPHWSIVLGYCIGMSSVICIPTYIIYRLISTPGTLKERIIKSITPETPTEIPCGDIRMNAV
Protocol: The methods to determine binding affinity at native transporters are described in the following publications: 5HT transporter and NE transporter (Owens et al., 1997), and DA transporter (Javitch et al, 1984).
as §1

[4] = target: T8, human α2B adrenergic receptor (Homo sapiens, UniProt P18089); assay: Binding at human α2B adrenergic receptor; settings: read-out: hα2B Ki
T8 construct: expressed in transfected cells
T8 sequence (P18089 whole entry): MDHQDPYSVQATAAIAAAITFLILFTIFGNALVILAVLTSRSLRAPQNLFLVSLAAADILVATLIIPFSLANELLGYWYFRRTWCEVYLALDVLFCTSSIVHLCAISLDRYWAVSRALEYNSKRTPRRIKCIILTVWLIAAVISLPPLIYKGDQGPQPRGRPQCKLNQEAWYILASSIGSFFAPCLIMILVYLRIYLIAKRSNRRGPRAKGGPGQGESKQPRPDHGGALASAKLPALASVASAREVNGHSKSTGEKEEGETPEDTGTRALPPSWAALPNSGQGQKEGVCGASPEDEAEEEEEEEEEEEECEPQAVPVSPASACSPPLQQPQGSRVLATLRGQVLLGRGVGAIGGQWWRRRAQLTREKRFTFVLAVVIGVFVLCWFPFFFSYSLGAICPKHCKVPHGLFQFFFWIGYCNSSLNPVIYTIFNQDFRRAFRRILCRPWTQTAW
From the text: as §3, §1

T1 sequence (P30939 whole entry): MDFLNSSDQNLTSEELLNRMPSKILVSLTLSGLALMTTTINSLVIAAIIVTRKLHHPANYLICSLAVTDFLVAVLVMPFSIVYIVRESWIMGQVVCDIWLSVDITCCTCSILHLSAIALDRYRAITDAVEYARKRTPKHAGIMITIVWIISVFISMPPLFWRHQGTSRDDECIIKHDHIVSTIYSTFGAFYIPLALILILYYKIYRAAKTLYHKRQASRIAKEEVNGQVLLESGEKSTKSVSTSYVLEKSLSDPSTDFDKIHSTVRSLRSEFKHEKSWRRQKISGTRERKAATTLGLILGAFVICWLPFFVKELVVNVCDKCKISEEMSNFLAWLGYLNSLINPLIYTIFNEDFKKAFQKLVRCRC

## O=C1C(=Nc2cccc(C(F)(F)F)c2)c2ccccc2N1c1ccccc1 [Example 92, 1-PHENYL-3-[[3-(TRIFLUOROMETHYL)PHENYL]IMINO]-1,3-DIHYDRO-2H-INDOL-2-ONE]
Human 5HT1F receptor
  Ki: 5.29 µM
Human 5HT4 receptor
  Ki: 0.072 µM
[1]
  % INHIBITION: 1%
[2]
  Ki: 21.9 µM
Human 5HT6 receptor
  Ki: > 50 µM
[3]
  Ki: 41.4 µM
5HT transporter
  Ki: 45.1 µM
[4]
  Ki: > 50 µM
